Experimental data: patent US20180055835A1, “Method for Treating And Preventing Protozoal Infections” (priority 2016, published 2018)

Tests used:
[1] = molecular target: Leishmania donovani topoisomerase I (LdTOPILS); settings: inhibitor of LdTOPILS; Roy A., et al., Biochemical Journal 2007; cited from earlier work
[2] = tested on: Py13XL malaria (P. falciparum); assay: Prevention of malaria by naltrexone in mice (dosing 7 days before infection); assay type: in vivo, BABL/C mice; settings: for more mice died: on 6 d
Method: (§1) • 45 BABL/C mice, six weeks old, were divided into 5 groups, 9 mice for each group. […] The survival was recorded from the first day of infection and infected rate of malaria are recorded from the third day of infection by taking tail vein blood, smearing glass slide, Gimsa staining and checking parasitemia under microscope.

Py13XL malaria [3] = assay: as above; assay type: in vivo, BABL/C mice; settings: oral, 7 days before infection, on 5 d, 9 mice per group
Method: as §1

Py13XL malaria [4] = assay: Anti-malaria effect (treatment) with naltrexone in infected mice; assay type: in vivo, BABL/C mice; settings: for mice died: on 5 d
Method: (§2) • 45 BABL/C mice, six weeks old, were divided into 5 groups, 9 mice for each group. […] The survival was recorded from the third day of infection and infected rate of malaria are recorded by taking tail vein blood, smearing glass slide, Gimsa staining and checking parasitemia under microscope. • Finally changes of immune parameters in peripheral blood were measured by flow cytometry technology and made comparison to control.

[5] = tested on: immune cells in peripheral blood; assay: Changes of immune parameters in peripheral blood post treatment, flow cytometry; assay type: in vivo, BABL/C mice; settings: treatment group after low dose naltrexone
Method: as §2

malaria = assay: Case reports: relapse of malaria in patients given LDN; assay type: in vivo, human
Method: • A patient with HIV suffering from malaria has had relapses at least twice a year for the last five years.
• A person has suffered on and off from malaria for 40 years. The patient was administered 4.5 mg of LDN per day, as an adjunct treatment with chemotherapy.

[6] = 0.5 mg naltrexone per mouse, oral, 7 days before infection, 9 mice per group
[7] = 1 mg naltrexone per mouse, oral, 7 days before infection, 9 mice per group
[8] = 0.5 mg naltrexone treating group, oral daily 15 days from 2 d post infection, 9 mice per group
[9] = 1 mg naltrexone treating group, oral daily 15 days from 2 d post infection, 9 mice per group

## c1ccc2c(Cc3c[nH]c4ccccc34)c[nH]c2c1 [DIM]
[1]
  IC50: 1200 nM

## O=C1CC[C@@]2(O)[C@H]3Cc4ccc(O)c5c4[C@@]2(CCN3CC2CC2)[C@H]1O5 [naltrexone]
[2]; [6]
  mice still alive at the end point: 1 mice
  more mice died: 7 mice
[2]; 1 mg naltrexone per mouse versus 0.5 mg and 2 mg
  protecting effect compared between dose groups: best protecting effect
[2]; 1 mg naltrexone per mouse, oral, 7 days before infection
  survival rate: 33.3%
[2]; [7]
  mice still alive till the end point: 3 mice
  more mice died: 5 mice
[2]; 1 mg naltrexone per mouse, surviving mice, on 20 d
  parasitemia: all infection parasitemia disappeared
[2]; 2 mg naltrexone per mouse, oral, 7 days before infection, 9 mice per group
  more mice died: 5 mice
Py13XL malaria [3]; 0.5 mg naltrexone per mouse
  mice died: 1 mice
Py13XL malaria [3]; 1 mg naltrexone per mouse
  mice died: 1 mice
Py13XL malaria [3]; 2 mg naltrexone per mouse
  mice died: 4 mice
Py13XL malaria [4]; [8]
  mice still alive for end point: 3 mice
  mice died: 2 mice
Py13XL malaria [4]; 0.5 mg naltrexone treating group, oral daily 15 days from 2 d post infection, on 6 d, 9 mice per group
  more mice died: 4 mice
Py13XL malaria [4]; 1 mg naltrexone group versus 0.5 mg and 2 mg
  treatment effect compared between dose groups: best treatment
Py13XL malaria [4]; [9]
  mice still alive till end point: 6 mice
  mice died: 0 mice
Py13XL malaria [4]; 1 mg naltrexone treating group, oral daily 15 days from 2 d post infection, on 6 d, 9 mice per group
  more mice died: 2 mice
Py13XL malaria [4]; 1 mg naltrexone treating group, oral daily 15 days from 2 d post infection, on 9 d, 9 mice per group
  more mice died: 1 mice
Py13XL malaria [4]; 1 mg naltrexone treating group, surviving mice, on 20 d
  parasitemia: parasitemia disappeared
Py13XL malaria [4]; 2 mg naltrexone group, oral daily from 2 d post infection, 9 mice per group
  mice died: 5 mice
Py13XL malaria [4]; 2 mg naltrexone group, oral daily from 2 d post infection, on 6 d, 9 mice per group
  more mice died: 4 mice
Py13XL malaria [4]; 2 mg naltrexone, infected mice
  toxicity to animals: shows toxicity
[5]; control 1.30 ± 0.13, P < 0.01
  Total nucleated cell: 4.21 ± 0.75
[5]; control 4.22 ± 0.64, P < 0.01
  Treg cell: 2.15 ± 0.48
[5]; control 7.58 ± 1.59, P < 0.01
  NK cell: 20.39 ± 4.42
[5]; control 9.18 ± 0.26, P < 0.01
  Macrophage: 12.1 ± 0.56
[5]; control 22.65 ± 3.48, P < 0.01
  CD4+ T cell: 34.81 ± 5.78
[5]; control 35.33 ± 3.62, P < 0.01
  CD8+ T cell: 59.63 ± 3.78
[5]; control 48.90 ± 4.06, P < 0.01
  CD3+ T cell: 67.04 ± 4.20
malaria; patient with HIV, relapses at least twice a year before, 4.5 mg per day as adjunct treatment for HIV
  time without relapse of malaria: 24 months
malaria; person, malaria on and off for 40 years, 4.5 mg per day, adjunct with chemotherapy
  time without relapse of malaria: over 24 months
